Experimental data: paper PMC10817917, “Alkyl deoxyglycoside-polymyxin combinations against critical priority carbapenem-resistant gram-negative bacteria” (Scientific Reports, 2024)
Where two headings read alike, the source gives them in different places.

Tests used:
[1] = test system: E. coli NCTC 13846; experiment: Broth microdilution MIC/MBC, glycosides with or without polymyxins; format: cell-based, Escherichia coli; details: strain B
[2] = test system: P. aeruginosa CQ4924; experiment: Broth microdilution MIC, glycosides with or without polymyxins; format: cell-based, Pseudomonas aeruginosa; details: for MIC: Pseudomonas aeruginosa, CQ4924
[3] = test system: K. pneumoniae CQ1942; experiment: as above; format: cell-based, Klebsiella pneumoniae; details: for MIC: Klebsiella pneumoniae, CQ1942
[4] = test system: A. baumannii CQ4322; experiment: Broth microdilution MIC/MBC, glycosides with or without polymyxins; format: cell-based, Acinetobacter baumannii; details: for MIC: Acinetobacter baumannii, CQ4322
[5] = alone, read-out: MICA (MIC of each compound individually)
[6] = combination with the lowest FICI
[7] = compound + colistin, lowest FICI

CCCCCCCCCCCCO[C@H]1O[C@H](C)C[C@H](O)[C@H]1O [Compound 1, dodecyl 4,6-dideoxy-α/β-D-xylo-hexopyranoside]
MIC of colistin in combination with the compound ([1]; Cpd conc. 0.4 μg/mL): > 0.5 µg/mL | MIC of colistin in combination with the compound ([1]; Cpd conc. 0.8 μg/mL): > 0.5 µg/mL | MIC of colistin in combination with the compound ([1]; Cpd conc. 3.125 μg/mL): > 0.5 µg/mL | MIC of colistin in combination with the compound ([1]; Cpd conc. 6.25 μg/mL): > 0.5 µg/mL | MIC of colistin in combination with the compound ([1]; Cpd conc. 12.5 μg/mL): > 0.5 µg/mL | MIC of colistin in combination with the compound ([1]; Cpd conc. […]): > 0.5 µg/mL | MIC ([1]; Escherichia coli, NCTC13846, agent alone, no adjuvant (polymyxin conc. 0), read-out: MIC): > 100 µg/mL | MIC of compound in combination with PMB ([1]; PMB 0.25 μg/mL): > 100 µg/mL | MIC of compound in combination with PMB ([1]; PMB 0.5 μg/mL): > 100 µg/mL | MIC of compound in combination with colistin ([1]; colistin 0.06 μg/mL): > 100 µg/mL | MIC of compound in combination with colistin ([1]; colistin 0.125 μg/mL): > 100 µg/mL | MIC of compound in combination with colistin ([1]; colistin 0.25 μg/mL): > 100 µg/mL | MIC of compound in combination with colistin ([1]; colistin 0.5 μg/mL): > 100 µg/mL | MIC of colistin in combination with the compound ([2]; Cpd conc. 0.4 μg/mL, strain H): > 0.5 µg/mL | MIC of colistin in combination with the compound ([2]; Cpd conc. 0.8 μg/mL, strain H): > 0.5 µg/mL | MIC of colistin in combination with the compound ([2]; Cpd conc. 3.125 μg/mL, strain H): > 0.5 µg/mL | MIC of colistin in combination with the compound ([2]; Cpd conc. 6.25 μg/mL, strain H): > 0.5 µg/mL | MIC of colistin in combination with the compound ([2]; Cpd conc. 12.5 μg/mL, strain H): > 0.5 µg/mL | MIC of colistin in combination with the compound ([2]; Cpd conc. […], strain H): > 0.5 µg/mL | MIC of compound in combination with PMB ([2]; PMB 0.25 μg/mL, strain H): > 100 µg/mL | MIC of compound in combination with PMB ([2]; PMB 0.5 μg/mL, strain H): > 100 µg/mL | MIC ([2]; agent alone, no adjuvant (polymyxin conc. 0), strain H, read-out: MIC): > 100 µg/mL | MIC [2, 5]: > 100 µg/mL | MIC of compound in combination with colistin ([2]; colistin 0.06 μg/mL, strain H): > 100 µg/mL | MIC of compound in combination with colistin ([2]; colistin 0.125 μg/mL, strain H): > 100 µg/mL | MIC of compound in combination with colistin ([2]; colistin 0.25 μg/mL, strain H): > 100 µg/mL | MIC of colistin in combination with the compound ([3]; Cpd conc. 0.4 μg/mL, strain E): > 0.5 µg/mL | MIC of colistin in combination with the compound ([3]; Cpd conc. 0.8 μg/mL, strain E): 0.5 µg/mL | MIC of colistin in combination with the compound ([3]; Cpd conc. 3.125 μg/mL, strain E): 0.25 µg/mL | MIC of colistin in combination with the compound ([3]; Cpd conc. 6.25 μg/mL, strain E): 0.25 µg/mL | MIC of colistin in combination with the compound ([3]; Cpd conc. 12.5 μg/mL, strain E): 0.25 µg/mL | MIC of colistin in combination with the compound ([3]; Cpd conc. […], strain E): 0.5 µg/mL | MIC ([3]; agent alone, no adjuvant (polymyxin conc. 0), strain E, read-out: MIC): > 100 µg/mL | MIC [3, 5]: > 100 µg/mL | MIC of compound in combination with PMB ([3]; PMB 0.25 μg/mL, strain E): > 100 µg/mL | MIC of compound in combination with PMB ([3]; PMB 0.5 μg/mL, strain E): 1.6 µg/mL | MIC of compound in combination with colistin ([3]; colistin 0.06 μg/mL, strain E): > 100 µg/mL | MIC of compound in combination with colistin ([3]; colistin 0.125 μg/mL, strain E): > 100 µg/mL | MIC of compound in combination with colistin ([3]; colistin 0.25 μg/mL, strain E): 3.1 µg/mL | MIC of compound in combination with colistin ([3]; colistin 0.5 μg/mL, strain E): 0.8 µg/mL | MICA(A + B) (MIC of compound in combination with colistin) [3, 6]: 3.125 µg/mL | MICB(A + B) (MIC of colistin in combination with compound) [3, 6]: 0.25 µg/mL | Interpretation (of FICI) ([3]; compound + colistin): Additive (from 0.5 to 1.0 were additive) | FICI [3, 7]: 0.52 | MIC ([4]; agent alone, no adjuvant (polymyxin conc. 0), strain G, read-out: MIC): > 100 µg/mL | MIC [4, 5]: > 100 µg/mL | MIC of colistin in combination with the compound ([4]; Cpd conc. 0.4 μg/mL, strain G): > 0.5 µg/mL | MIC of colistin in combination with the compound ([4]; Cpd conc. 0.8 μg/mL, strain G): > 0.5 µg/mL | MIC of colistin in combination with the compound ([4]; Cpd conc. 3.125 μg/mL, strain G): 0.25 µg/mL | MIC of colistin in combination with the compound ([4]; Cpd conc. 6.25 μg/mL, strain G): 0.25 µg/mL | MIC of colistin in combination with the compound ([4]; Cpd conc. 12.5 μg/mL, strain G): 0.25 µg/mL | MIC of colistin in combination with the compound ([4]; Cpd conc. […], strain G): 0.5 µg/mL | MIC of compound in combination with PMB ([4]; PMB 0.25 μg/mL, strain G): > 100 µg/mL | MIC of compound in combination with PMB ([4]; PMB 0.5 μg/mL, strain G): 3.1 µg/mL | MIC of compound in combination with colistin ([4]; colistin 0.06 μg/mL, strain G): > 100 µg/mL | MIC of compound in combination with colistin ([4]; colistin 0.125 μg/mL, strain G): > 100 µg/mL | MIC of compound in combination with colistin ([4]; colistin 0.25 μg/mL, strain G): 3.1 µg/mL | MIC of compound in combination with colistin ([4]; colistin 0.5 μg/mL, strain G): 1.6 µg/mL | MICA(A + B) (MIC of compound in combination with colistin) [4, 6]: 3.125 µg/mL | MICB(A + B) (MIC of colistin in combination with compound) [4, 6]: 0.25 µg/mL | Interpretation (of FICI) ([4]; compound + colistin): Additive (from 0.5 to 1.0 were additive) | FICI [4, 7]: 0.52
